How the values were obtained:
Type in all cases: cell-based
Pseudomonas aeruginosa = assay: agar plate disc-diffusion, antibacterial activity; conditions: nutrient agar, 37° C., 48 h
Method: (§1) The agar plate disc-diffusion method was applied. […] The discs were then placed onto the surface of agar plates (nutrient agar for bacteria and Sabouraud's dextrose agar for fungi) seeded with the test organism. Each plate contained 15 mL of the agar medium, previously seeded with 0.2 mL of the broth culture of each organism pregrown for 18 hours. The plates were incubated at 37° C. for 48 h, and 72 h for fungi. The inhibition zones were measured in mm. Discs impregnated with DMSO were used as a control, and its inhibition zone was subtracted from the tested compound actual inhibition zone.

Staphylococcus aureus = assay: agar plate disc-diffusion, antibacterial activity; conditions: nutrient agar, 37° C., 48 h
Method: as §1

Bacillus cereus = assay: agar plate disc-diffusion, antibacterial activity; conditions: nutrient agar, 37° C., 48 h
Method: as §1

Escherichia coli = assay: agar plate disc-diffusion, antibacterial activity; conditions: nutrient agar, 37° C., 48 h
Method: as §1

Aspergillus flavus = assay: agar plate disc-diffusion, antifungal activity; conditions: Sabouraud's dextrose agar, 72 h
Method: as §1

[1] = tested on: Chrysosporium keratinophilum; assay: agar plate disc-diffusion, antifungal activity; conditions: Sabouraud's dextrose agar, 72 h
Method: as §1

different microbes = assay: antimicrobial activity screening, overall statement; conditions: against different microbes (bacteria and fungi of Tables 1 and 2)
Method: The agar plate disc-diffusion method was applied. Sterilized filter papers (6 mm in diameter) were wetted with 10 μL of a solution of 2-[(1,3-benzothiazol-2-yl)imino]-5,5-diphenylimidazolidin-4-one (3) to be tested, containing 10 mg/mL in DMSO, and the discs were allowed to air dry. The discs were then placed onto the surface of agar plates (nutrient agar for bacteria and Sabouraud's dextrose agar for fungi) seeded with the test organism. Each plate contained 15 mL of the agar medium, previously seeded with 0.2 mL of the broth culture of each organism pregrown for 18 hours. The plates were incubated at 37° C. for 48 h, and 72 h for fungi. The inhibition zones were measured in mm. Discs impregnated with DMSO were used as a control, and its inhibition zone was subtracted from the tested compound actual inhibition zone.

[2] = A = concentration of comp. = 10,000 μL
[3] = B = concentration of comp. = 30,000 μL
[4] = C = concentration of comp. = 50,000 μL
[5] = A = concentration of comp. = 10 mg/mL

Structure (SMILES)	inhibition zone (Pseudomonas aeruginosa; [2])	inhibition zone (Pseudomonas aeruginosa; [3])	inhibition zone (Pseudomonas aeruginosa; [4])	inhibition zone (Staphylococcus aureus; [2])	inhibition zone (Staphylococcus aureus; [3])	inhibition zone (Staphylococcus aureus; [4])	inhibition zone (Bacillus cereus; [2])	inhibition zone (Bacillus cereus; [3])	inhibition zone (Bacillus cereus; [4])	inhibition zone (Escherichia coli; A =)	inhibition zone (Escherichia coli; [3])	inhibition zone (Escherichia coli; [4])	inhibition zone (Aspergillus flavus; [5])	inhibition zone (Aspergillus flavus; [3])	inhibition zone (Aspergillus flavus; [4])	inhibition zone [1, 2]	inhibition zone [1, 3]	inhibition zone [1, 4]	antimicrobial activities (different microbes)
O=C(O)c1cn(C2CC2)c2cc(N3CCNCC3)c(F)cc2c1=O [Cip., ciprofloxacin, reference compound]	29 mm	30 mm	53 mm	43 mm	44 mm	53 mm	29 mm	30 mm	42 mm	30 mm	39 mm	60 mm	29 mm	30 mm	42 mm	29 mm	30 mm	53 mm	
O=C1N/C(=N/c2nc3ccccc3s2)NC1(c1ccccc1)c1ccccc1 [Compound 3, 2-[(1,3-benzothiazol-2-yl)imino]-5,5-diphenylimidazolidin-4-one]	24 mm	28 mm	45 mm	19 mm	23 mm	35 mm	20 mm	23 mm	35 mm	26 mm	34 mm	50 mm	21 mm	25 mm	31 mm	26 mm	29 mm	45 mm	excellent antimicrobial activities

Source: patent US12180202B1, “2-[(1,3-benzothiazol-2-yl)imino]-5,5-diphenylimidazolidin-4-one as an antimicrobial compound” (KING FAISAL UNIVERSITY, priority 2023, dated 2024)
